Results taken from PubChem BioAssay AID2742 (NMMLSC, 2010).
Calls of active or inactive are those of the source.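 How the source made its calls: active means fitted half-maximal concentration for changing background-corrected GFP signal at or below a set limit; inactive means the rest.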

Assay: modulators of MEP2-GFP levels in yeast, dose response, S. cerevisiae, flow cytometry GFP, MLPCN hits (AID 2742);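 further: GFP tag reports level of MEP2 protein as a downstream target of TOR signalling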
Settings: S. cerevisiae MEP2-GFP strain, flow cytometry fluorescence, 3 h; at 33 µM (top of the series)
With `Cc1ccc(C(CC(=O)O)NC(=O)c2ccc(S(=O)(=O)N3CC(C)OC(C)C3)cc2)cc1` (stereo unspecified) the GFP fluorescence (kMESF), higher = increase was 3.08 kMESF (inactive). With `O=C(Nc1ccccc1)c1nnsc1S(=O)(=O)c1ccc(Cl)cc1` the GFP fluorescence (kMESF), higher = increase was 6.03 kMESF (inactive). For `CCCCCCCCCCCCCCCC[n+]1cccc2ccccc21`, the GFP fluorescence (kMESF), higher = increase was 1.62 kMESF (inactive). In the case of `N/C(=N\OC(=O)c1ccc(Cl)cc1Cl)c1ccccc1`, the GFP fluorescence (kMESF), higher = increase is reported as 3.21 kMESF (inactive). With `COc1ccc2c(c1)c(/C=C/c1cc[n+](C)cc1)cn2C` the GFP fluorescence (kMESF), higher = increase was 4.56 kMESF (inactive). With `CCOC(=O)C1=C(O)c2ccccc2C(=O)/C1=C\c1ccc(C)cc1` the GFP fluorescence (kMESF), higher = increase was -34.5 kMESF (inactive). With `O=C(COc1ccccc1)N1CCN(c2ncnc3c2cnn3-c2ccccc2)CC1` the GFP fluorescence (kMESF), higher = increase was 1.97 kMESF (inactive). For `CCCCCn1c(=O)c(C(=O)Nc2nc3ccccc3[nH]2)c(O)c2ccccc21`, the GFP fluorescence (kMESF), higher = increase was 1.97 kMESF (inactive). With `Cc1cc(C)c(S(=O)(=O)ON2C(=O)c3ccccc3C2=O)cc1C` the GFP fluorescence (kMESF), higher = increase was 3.17 kMESF (inactive). For `CC[C@H](C)/C=C(C)/C=C/C1=CC2=C(Cl)C(=O)[C@@](C)(OC(C)=O)C(=O)C2=CO1`, the GFP fluorescence (kMESF), higher = increase was 0.91 kMESF (inactive). For `O=C(Nc1cccc(C(F)(F)F)c1)Oc1ccc(Cl)c2cccnc12`, the GFP fluorescence (kMESF), higher = increase was 2.78 kMESF (inactive). For `O=C1NC(=S)NC(=O)C1=Cc1ccc2c(c1)CCN2CCCCl`, the GFP fluorescence (kMESF), higher = increase was 4.18 kMESF (inactive). With `Cc1ccc(C(=O)NNC(=S)NC(=O)COc2ccccc2)cc1` the GFP fluorescence (kMESF), higher = increase was 6.29 kMESF (inactive). With `N/C(Cc1ccc(Cl)cc1)=N\OC(=O)c1ccccc1` the GFP fluorescence (kMESF), higher = increase was 3.99 kMESF (inactive). For `O=C(Nc1ccc(N2CCOCC2)cc1)C1CCN(S(=O)(=O)c2ccc3c(c2)OCCO3)CC1`, the GFP fluorescence (kMESF), higher = increase was 2 kMESF (inactive). With `CCOc1ccc(N2C(=O)C(Cl)=C(Nc3ccccc3O)C2=O)cc1` the GFP fluorescence (kMESF), higher = increase was 4.31 kMESF (inactive). With `O=c1oc2cc(Oc3c([N+](=O)[O-])cc(C(F)(F)F)cc3[N+](=O)[O-])ccc2c2c1CCCC2` the GFP fluorescence (kMESF), higher = increase was 4.77 kMESF (inactive). For `O=C(O)c1cc[c]([Hg][Cl])cc1`, the GFP fluorescence (kMESF), higher = increase was 4.47 kMESF (inactive). In the case of `CN(c1ccccc1)c1ccc(/C=c2\s/c(=C(/C#N)C(=O)C(C)(C)C)n(Cc3ccco3)c2=O)cc1`, the GFP fluorescence (kMESF), higher = increase is reported as 13.7 kMESF (inactive). For `Cc1cccc(/C=C/C(=O)c2ccc([N+](=O)[O-])o2)c1`, the GFP fluorescence (kMESF), higher = increase was 5.78 kMESF (inactive). In the case of `COc1ccccc1OCCCc1c(C)n[nH]c1C`, the GFP fluorescence (kMESF), higher = increase is reported as 3.47 kMESF (inactive). For `O=C(c1ccccc1)c1ccccc1N1C(=O)C=CC1=O`, the GFP fluorescence (kMESF), higher = increase was 4.22 kMESF (inactive). For `O=C(/C=C/c1ccccn1)c1ccc(Br)cc1O`, the GFP fluorescence (kMESF), higher = increase was 2.38 kMESF (inactive). In the case of `Nc1c(C(=O)c2cccs2)sc2nsc(SCCN3CCCCC3)c12`, the GFP fluorescence (kMESF), higher = increase is reported as 15.6 kMESF (inactive). With `O=C1ON=C(c2ccc(Cl)cc2)/C1=C/c1ccc(O)cc1` the GFP fluorescence (kMESF), higher = increase was 3.61 kMESF (inactive). In the case of `O=C1c2ccccc2C(=O)C2OC12` (stereo unspecified), the GFP fluorescence (kMESF), higher = increase is reported as 3.37 kMESF (inactive). In the case of `COC(=O)CCS(=O)(=O)c1nc(-c2ccccc2)cc(C(F)(F)F)n1`, the GFP fluorescence (kMESF), higher = increase is reported as 6.95 kMESF (inactive). In the case of `O=c1c2cnn(-c3ccccc3)c2ncn1Cc1ccco1`, the GFP fluorescence (kMESF), higher = increase is reported as 1.97 kMESF (inactive). In the case of `Oc1c(Br)cc(Br)cc1C=Nc1ccc2c(c1)OCO2`, the GFP fluorescence (kMESF), higher = increase is reported as 5.35 kMESF (inactive). With `CN1C(=O)/C(=N\OC(=O)c2cccc3ccccc23)c2ccccc21` the GFP fluorescence (kMESF), higher = increase was 3.68 kMESF (inactive). In the case of `O=C1Nc2ccccc2/C1=C\C(=O)c1ccccc1`, the GFP fluorescence (kMESF), higher = increase is reported as 5.08 kMESF (inactive). For `CCC(C)/C(C)=N/NC(=O)c1ccc(COc2ccc(Cl)c(C)c2)cc1` (stereo unspecified), the GFP fluorescence (kMESF), higher = increase was 2.48 kMESF (inactive). In the case of `O=C(Nc1nnc(-c2ccc3c(c2)CCCC3)o1)c1ccc(Cl)cc1Cl`, the GFP fluorescence (kMESF), higher = increase is reported as 3.77 kMESF (inactive). For `O=C1N(c2ccccc2C(F)(F)F)OC1(Cc1ccccc1)c1ccccc1` (stereo unspecified), the GFP fluorescence (kMESF), higher = increase was 2.86 kMESF (inactive). For `Cc1cc(C)c(OCC(=O)Nc2nc(-c3ccccn3)cs2)c(C)c1`, the GFP fluorescence (kMESF), higher = increase was 2.37 kMESF (inactive). With `Cc1cc(C)c2c(c1)/C(=C/C(=O)c1ccc(Br)s1)C(=O)N2` the GFP fluorescence (kMESF), higher = increase was 3.51 kMESF (inactive). For `O=[N+]([O-])c1cc(CN2CCN(c3ccccc3)CC2)c(O)c2ncccc12`, the GFP fluorescence (kMESF), higher = increase was 4.24 kMESF (inactive). For `O=C1Oc2ccccc2C(=O)/C1=C/c1ccccc1O`, the GFP fluorescence (kMESF), higher = increase was 5.39 kMESF (inactive). In the case of `Cc1ccc(S(=O)(=O)ON2C(=O)c3ccccc3C2=O)c(C)c1`, the GFP fluorescence (kMESF), higher = increase is reported as 5.06 kMESF (inactive). With `Cc1ccc(NC(=O)ON=C2CCCC2)cc1` the GFP fluorescence (kMESF), higher = increase was 3.26 kMESF (inactive). For `COc1ccc(C=C2C(=O)c3ccccc3C2=O)cc1O`, the GFP fluorescence (kMESF), higher = increase was 2.67 kMESF (inactive). For `Cc1[nH]c2ccccc2c1C(=O)COC(=O)c1ccc([N+](=O)[O-])s1`, the GFP fluorescence (kMESF), higher = increase was 0.4 kMESF (inactive). In the case of `CCN(CC)c1ccc2cc(-c3nc4ccccc4[nH]3)c(=O)oc2c1`, the GFP fluorescence (kMESF), higher = increase is reported as 6.39 kMESF (inactive). With `O=C(OCC(=O)N1CCN(C(=O)c2ccco2)CC1)c1cc(-c2ccc(Cl)c(Cl)c2Cl)nc2ccccc12` the GFP fluorescence (kMESF), higher = increase was 4.51 kMESF (inactive). For `O=C(Cc1ccc(Cl)cc1)NNC(=S)NC(=O)c1cccs1`, the GFP fluorescence (kMESF), higher = increase was 6.72 kMESF (inactive). With `CCOc1ccccc1/C=c1\sc2ncnn2c1=O` the GFP fluorescence (kMESF), higher = increase was 4.47 kMESF (inactive). For `Cc1ccc(/C=C2\C(=O)NC(=S)N(c3ccccc3F)C2=O)s1`, the GFP fluorescence (kMESF), higher = increase was 4.49 kMESF (inactive). For `O=C1Nc2ccc(Br)cc2/C1=C/C(=O)c1ccc2c(c1)OCO2`, the GFP fluorescence (kMESF), higher = increase was 4.66 kMESF (inactive). For `CCc1ccc2c(c1)/C(=C/C(=O)c1cccs1)C(=O)N2`, the GFP fluorescence (kMESF), higher = increase was 3.95 kMESF (inactive). For `Cc1nn(C)c(C)c1N1C(=O)c2cccc3c(Br)ccc(c23)C1=O`, the GFP fluorescence (kMESF), higher = increase was 3.61 kMESF (inactive). For `CCc1sc(C(=O)Nc2nc(-c3ccccn3)cs2)cc1C`, the GFP fluorescence (kMESF), higher = increase was 5.26 kMESF (inactive). In the case of `CCc1nc2ccccc2c(=O)n1NC(=O)c1c(O)c2ccccc2n(CC)c1=O`, the GFP fluorescence (kMESF), higher = increase is reported as 2.98 kMESF (inactive). For `O=c1c2sc(-c3ccccc3)cc2nc2n1CCC2`, the GFP fluorescence (kMESF), higher = increase was 3.03 kMESF (inactive). In the case of `O=C(O)c1ccc(COc2ccccc2C=C2C(=O)c3ccccc3C2=O)cc1`, the GFP fluorescence (kMESF), higher = increase is reported as 1.54 kMESF (inactive). In the case of `CCOC(=O)Cn1cc(/C=C/[N+](=O)[O-])c2ccccc21`, the GFP fluorescence (kMESF), higher = increase is reported as 4.22 kMESF (inactive). With `CC(=O)N(\C=C/C=C/C=C1\Sc2ccccc2C1=O)c1ccccc1` the GFP fluorescence (kMESF), higher = increase was 8.76 kMESF (inactive). With `Cc1ccsc1/C=C1\C(=O)NC(=S)N(C)C1=O` the GFP fluorescence (kMESF), higher = increase was 3.66 kMESF (inactive). With `Cc1ccc(/C=C2/C(=O)ON=C2c2ccccc2)o1` the GFP fluorescence (kMESF), higher = increase was 3.11 kMESF (inactive). With `COc1ccc(OCC(=O)NNC(=S)NC(=O)C2CCCCC2)cc1` the GFP fluorescence (kMESF), higher = increase was 3.25 kMESF (inactive). For `COc1cc(C=C2C(=O)c3ccccc3C2=O)cc(OC)c1OC`, the GFP fluorescence (kMESF), higher = increase was 2.43 kMESF (inactive). In the case of `Cc1ccccc1OCC(=O)NNC(=S)NC(=O)c1ccco1`, the GFP fluorescence (kMESF), higher = increase is reported as 5.41 kMESF (inactive).
